Values quoted from earlier work in patent publication EP4368198A1, “COMPOSITION FOR DELIVERING A PROTEIN OR A POLYPEPTIDE TO A EUKARYOTIC CELL” (Klinikum der Universität München, priority 2022, dated 2024).

Details: normalized, most hydrophobic residue 100, glycine 0, Monera et al. 1995

O=C(O)[C@@H]1CCCN1 [Proline (pro), Proline]
hydrophobicity index At pH 7: -46 (used pH 2)
